This passage reports IC50 results from patent US11459336B2, “Pyrazine carbamates and their use as GluN2B receptor modulators” (JANSSEN PHARMACEUTICA NV, priority 2019, dated 2022).

Test [1] concerns the target T1, human GluN1/GluN2B NMDA receptors (Homo sapiens, UniProt Q05586+Q13224).
T1 construct: expressed in transfected cells
The experiment in a line: Calcium flux (FLIPR) assay on cloned human GluN1/GluN2B ion channels expressed in mammalian cells, standard assay. Format: cell-based. The conditions noted are these: glutamate ~EC40, 10 μM glycine, stable cell line with Tet-On induced expression. The protocol:
(§1) NMDA receptors are ion channels that are highly permeable to Ca^2+ ions, rendering it possible to monitor NMDA receptor function using cell-based calcium flux assay. In this assay, co-agonists glutamate and glycine are added to cells heterologously expressing human GluN1/GluN2B NMDA receptors to initiate cellular Ca^2+ influx. The time course of the changes in intracellular calcium is measured using a fluorescent dye and a FLIPR (Fluorometric Imaging Plate Reader) device.
(§2) Twenty four hours before measurements, the expression of the NMDA receptors in the stable cell line is induced with Tet-On inducible system in the presence of a non-selective NMDA receptor blocker. On the day of the experiment, cell culture media is carefully washed and the cells are loaded with Calcium 5 Dye Kit (Molecular Devices) in dye loading buffer containing 137 mM NaCl, 4 mM KCl, 2 mM CaCl2, 0.5 mM MgCl2 (standard assay) or 1.5 mM MgCl2 (HTS assay), 10 mM HEPES and 5 mM D-glucose; pH 7.4. After 1 h incubation at the room temperature, the dye is washed away with the assay buffer (137 mM NaCl (standard assay) or 150 mM (HTS assay), 4 mM KCl (standard assay) or 3 mM (HTS assay), 2 mM CaCl2, 0.01 mM EDTA, 10 mM HEPES and 5 mM D-glucose; pH 7.4) In the FLIPR TETRA reader, various concentrations of the test compounds are added to the cells for 5 min while fluorescence is monitored to detect potential agonist activity. Next, co-agonists, glutamate and glycine are added for another 5 minutes. The concentration of glutamate corresponding to ˜EC40 (standard assay) or EC40 (HTS assay) is used to maximize the assay's signal window and ability to detect NMDA receptor antagonists and negative allosteric modulators. A saturating concentration (10 μM) of glycine is also present in the assay. A non-selective NMDA receptor antagonist, (+)MK-801 is used as a positive control for antagonist activity. The fluorescent signal in the presence of test compounds is quantified and normalized to the signal defined by the appropriate control wells.

For test [2], the target named is T2, human GluN1/GluN2B NMDA receptors (Homo sapiens, UniProt Q13224).
T2 construct: expressed in transfected cells
T2 sequence (Q13224 27-1484, other chains not shown): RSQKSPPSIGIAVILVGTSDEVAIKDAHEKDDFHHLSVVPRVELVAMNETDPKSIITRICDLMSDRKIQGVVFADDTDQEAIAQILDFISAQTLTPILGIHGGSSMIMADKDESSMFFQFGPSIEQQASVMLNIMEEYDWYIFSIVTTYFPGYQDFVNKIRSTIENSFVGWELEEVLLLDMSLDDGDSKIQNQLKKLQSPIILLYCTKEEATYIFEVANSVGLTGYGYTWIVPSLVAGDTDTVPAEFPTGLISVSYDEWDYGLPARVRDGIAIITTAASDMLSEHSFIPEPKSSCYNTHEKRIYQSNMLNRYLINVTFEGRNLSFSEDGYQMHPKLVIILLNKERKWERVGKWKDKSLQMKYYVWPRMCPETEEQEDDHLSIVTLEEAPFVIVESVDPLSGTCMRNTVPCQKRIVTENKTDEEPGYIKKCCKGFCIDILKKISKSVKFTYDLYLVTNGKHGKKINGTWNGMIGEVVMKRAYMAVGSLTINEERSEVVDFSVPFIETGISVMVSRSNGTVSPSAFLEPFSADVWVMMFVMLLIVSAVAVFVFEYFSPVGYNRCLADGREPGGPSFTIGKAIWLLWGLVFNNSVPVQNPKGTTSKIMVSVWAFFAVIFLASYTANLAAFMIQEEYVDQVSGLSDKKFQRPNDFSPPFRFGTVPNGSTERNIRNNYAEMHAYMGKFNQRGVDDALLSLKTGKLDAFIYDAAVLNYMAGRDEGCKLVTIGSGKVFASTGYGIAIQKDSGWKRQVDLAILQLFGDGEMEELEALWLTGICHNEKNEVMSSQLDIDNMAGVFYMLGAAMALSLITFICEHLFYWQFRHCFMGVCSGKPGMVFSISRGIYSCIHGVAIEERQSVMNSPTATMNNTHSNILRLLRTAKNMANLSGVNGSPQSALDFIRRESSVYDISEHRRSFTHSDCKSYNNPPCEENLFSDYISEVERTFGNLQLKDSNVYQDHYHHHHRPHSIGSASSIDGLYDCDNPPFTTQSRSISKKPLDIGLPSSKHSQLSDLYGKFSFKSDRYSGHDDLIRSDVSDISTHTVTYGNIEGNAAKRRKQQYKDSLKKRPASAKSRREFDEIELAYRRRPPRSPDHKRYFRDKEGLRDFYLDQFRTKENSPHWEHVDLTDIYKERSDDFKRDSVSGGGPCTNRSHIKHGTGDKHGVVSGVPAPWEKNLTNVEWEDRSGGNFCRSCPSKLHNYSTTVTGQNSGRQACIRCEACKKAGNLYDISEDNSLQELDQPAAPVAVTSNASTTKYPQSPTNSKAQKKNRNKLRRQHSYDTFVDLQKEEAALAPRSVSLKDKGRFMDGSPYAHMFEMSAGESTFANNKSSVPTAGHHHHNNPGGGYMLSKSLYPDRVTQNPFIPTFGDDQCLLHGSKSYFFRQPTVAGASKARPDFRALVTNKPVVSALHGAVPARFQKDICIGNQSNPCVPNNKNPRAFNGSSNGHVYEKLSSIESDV
The description is as above. Format: cell-based. The conditions noted are these: glutamate ~EC40, 10 μM glycine, stable cell line with Tet-On induced expression. The protocol: as §1, §2

T1 sequence (Q13224 27-1484, other chains not shown): as above

In the case of `CN(C)C(=O)C1CN(Cc2cncc(-c3ccc(Cl)c(OC(F)F)c3)n2)C(=O)O1` (racemic) [Example 55, (R/S)-3-[[6-[4-Chloro-3-(difluoromethoxy)phenyl]pyrazin-2-yl]methyl]-N,N-dimethyl-2-oxo-oxazolidine-5-carboxamide], the IC50 in test [1] came out at 1390 nM.

In the case of `CNC(=O)C1CN(Cc2cncc(-c3ccc(Cl)c(OC(F)F)c3)n2)C(=O)O1` (racemic) [Example 56, (R/S)-3-[[6-[4-Chloro-3-(difluoromethoxy)phenyl]pyrazin-2-yl]methyl]-N-methyl-2-oxo-oxazolidine-5-carboxamide], the IC50 in test [1] turned out to be 2050 nM.

For `O=C1OC(C(=O)N2CCC2)CN1Cc1cncc(-c2ccc(F)c(C(F)F)c2)n1` (racemic) [Example 58, (R/S)-5-(Azetidine-1-carbonyl)-3-[[6-[3-(difluoromethyl)-4-fluoro-phenyl]pyrazin-2-yl]methyl]oxazolidin-2-one], the IC50 in test [1] is > 3000 nM.

`CNC(=O)C1CN(Cc2cncc(-c3ccc(F)c(OC(F)F)c3)n2)C(=O)O1` (racemic) [Example 60, (R/S)-3-[[6-[3-(Difluoromethoxy)-4-fluoro-phenyl]pyrazin-2-yl]methyl]-N-methyl-2-oxo-oxazolidine-5-carboxamide]: the IC50 in test [1] turned out to be 5390 nM.

Regarding `O=C1OC(C(=O)N2CCC2)CN1Cc1cncc(-c2ccc(F)c(OC(F)F)c2)n1` (racemic) [Example 61, (R/S)-5-(Azetidine-1-carbonyl)-3-[[6-[3-(difluoromethoxy)-4-fluoro-phenyl]pyrazin-2-yl]methyl]oxazolidin-2-one], the IC50 in test [1] was found to be 5740 nM.

With `CN(C)C(=O)C1CN(Cc2cncc(-c3ccc(F)c(C(C)(F)F)c3)n2)C(=O)O1` (racemic) [Example 62, (R/S)-3-[[6-[3-(1,1-Difluoroethyl)-4-fluoro-phenyl]pyrazin-2-yl]methyl]-N,N-dimethyl-2-oxo-oxazolidine-5-carboxamide], in test [1], the IC50 turned out to be 3680 nM.

For `Cc1ncc(-c2ccc(Cl)c(OC(F)F)c2)nc1CN1CCCOC1=O` [Example 37, 3-[[6-[4-Chloro-3-(difluoromethoxy)phenyl]-3-methyl-pyrazin-2-yl]methyl]-1,3-oxazinan-2-one], the IC50 in test [2] was found to be 18 nM.

Regarding `CC(F)(F)c1cccc(-c2cncc(CN3CC4(CC4)OC3=O)n2)c1` [Example 38, 5-[[6-[3-(1,1-Difluoroethyl)phenyl]pyrazin-2-yl]methyl]-7-oxa-5-azaspiro[2.4]heptan-6-one], the IC50 in test [2] came to 17 nM.

Regarding `CC1(C)CN(Cc2cncc(-c3cccc(C(C)(F)F)c3)n2)C(=O)O1` [Example 39, 3-[[6-[3-(1,1-Difluoroethyl)phenyl]pyrazin-2-yl]methyl]-5,5-dimethyl-oxazolidin-2-one], the IC50 in test [2] was 4510 nM.

`C[C@@H]1CN(Cc2cncc(-c3cccc(C(C)(F)F)c3)n2)C(=O)O1` [Example 40, (5R)-3-[[6-[3-(1,1-Difluoroethyl)phenyl]pyrazin-2-yl]methyl]-5-methyl-oxazolidin-2-one]: the IC50 in test [2] is 39 nM.

Consider `C[C@H]1CN(Cc2cncc(-c3cccc(C(C)(F)F)c3)n2)C(=O)O1` [Example 41, (5S)-3-[[6-[3-(1,1-Difluoroethyl)phenyl]pyrazin-2-yl]methyl]-5-methyl-oxazolidin-2-one], for which the IC50 in test [2] came to 167 nM.

Turning to `CC(F)(F)c1cccc(-c2cncc(CN3CCCOC3=O)n2)c1` [Example 42, 3-[[6-[3-(1,1-Difluoroethyl)phenyl]pyrazin-2-yl]methyl]-1,3-oxazinan-2-one], in test [2], the IC50 turned out to be 105 nM.

In the case of `Cc1ncc(-c2cccc(C(C)(F)F)c2)nc1CN1CC2(CC2)OC1=O` [Example 43, 5-[[6-[3-(1,1-Difluoroethyl)phenyl]-3-methyl-pyrazin-2-yl]methyl]-7-oxa-5-azaspiro[2.4]heptan-6-one], in test [2], the IC50 turned out to be 203 nM.

Regarding `Cc1ncc(-c2cccc(C(C)(F)F)c2)nc1CN1CC(C)(C)OC1=O` [Example 44, 3-[[6-[3-(1,1-Difluoroethyl)phenyl]-3-methyl-pyrazin-2-yl]methyl]-5,5-dimethyl-oxazolidin-2-one], the IC50 in test [2] is > 3000 nM.

With `Cc1ncc(-c2cccc(C(C)(F)F)c2)nc1CN1CCCOC1=O` [Example 45, 3-[[6-[3-(1,1-Difluoroethyl)phenyl]-3-methyl-pyrazin-2-yl]methyl]-1,3-oxazinan-2-one], the half-inhibitory concentration (IC50) in test [2] came to 127 nM.

For `C[C@@H]1COC(=O)N1Cc1cncc(-c2ccc(F)c(C(C)(F)F)c2)n1` [Example 46, (4R)-3-[[6-[3-(1,1-Difluoroethyl)-4-fluoro-phenyl]pyrazin-2-yl]methyl]-4-methyl-oxazolidin-2-one], in test [2], the IC50 was 166 nM.

Consider `C[C@H]1COC(=O)N1Cc1cncc(-c2ccc(F)c(C(C)(F)F)c2)n1` [Example 47, (4S)-3-[[6-[3-(1,1-Difluoroethyl)-4-fluoro-phenyl]pyrazin-2-yl]methyl]-4-methyl-oxazolidin-2-one], for which the IC50 in test [2] was 624 nM.

On to `CC(F)(F)c1cccc(-c2cncc(CN3CCC4(CC4)OC3=O)n2)c1` [Example 48, 6-[[6-[3-(1,1-Difluoroethyl)phenyl]pyrazin-2-yl]methyl]-8-oxa-6-azaspiro[2.5]octan-7-one], for which, in test [2], the IC50 is 124 nM.

Regarding `O=C1OC2(CCN1Cc1cncc(-c3ccc(F)c(OC(F)F)c3)n1)CC2` [Example 49, 6-[[6-[3-(Difluoromethoxy)-4-fluoro-phenyl]pyrazin-2-yl]methyl]-8-oxa-6-azaspiro[2.5]octan-7-one], the IC50 in test [2] stood at 48 nM.

In the case of `O=C1OC2(CCN1Cc1cncc(-c3ccc(Cl)c(OC(F)F)c3)n1)CC2` [Example 50, 6-[[6-[4-Chloro-3-(difluoromethoxy)phenyl]pyrazin-2-yl]methyl]-8-oxa-6-azaspiro[2.5]octan-7-one], in test [2], the IC50 turned out to be 49 nM.

Consider `O=C1OC2(CCN1Cc1cncc(-c3ccc(F)c(C(F)F)c3)n1)CC2` [Example 52, 6-[[6-[3-(Difluoromethyl)-4-fluoro-phenyl]pyrazin-2-yl]methyl]-8-oxa-6-azaspiro[2.5]octan-7-one], for which the IC50 in test [2] turned out to be 61 nM.

In the case of `Cc1ncc(-c2ccc(F)c(C(F)F)c2)nc1CN1CCC2(CC2)OC1=O` [Example 53, 6-[[6-[3-(Difluoromethyl)-4-fluoro-phenyl]-3-methyl-pyrazin-2-yl]methyl]-8-oxa-6-azaspiro[2.5]octan-7-one], the IC50 in test [2] worked out at 102 nM.

As to `Cc1ncc(-c2ccc(F)c(OC(F)F)c2)nc1CN1CCC2(CC2)OC1=O` [Example 54, 6-[[6-[3-(Difluoromethoxy)-4-fluoro-phenyl]-3-methyl-pyrazin-2-yl]methyl]-8-oxa-6-azaspiro[2.5]octan-7-one], the IC50 in test [2] was found to be 74 nM.

Turning to `O=C1OC(C(=O)N2CCC2)CN1Cc1cncc(-c2ccc(Cl)c(OC(F)F)c2)n1` (centres unmarked) [Example 57, 5-(Azetidine-1-carbonyl)-3-[[6-[4-chloro-3-(difluoromethoxy)phenyl]pyrazin-2-yl]methyl]oxazolidin-2-one], the IC50 in test [2] came out at 2000 nM.

`O=C1OC2(CNC2)CN1Cc1cncc(-c2ccc(Cl)c(OC(F)F)c2)n1` [Example 67, 6-[[6-[4-Chloro-3-(difluoromethoxy)phenyl]pyrazin-2-yl]methyl]-8-oxa-2,6-diazaspiro[3.4]octan-7-one]: the IC50 in test [2] turned out to be 530 nM.

Regarding `CN1CC2(C1)CN(Cc1cncc(-c3ccc(Cl)c(OC(F)F)c3)n1)C(=O)O2` [Example 68, 6-[[6-[4-Chloro-3-(difluoromethoxy)phenyl]pyrazin-2-yl]methyl]-2-methyl-8-oxa-2,6-diazaspiro[3.4]octan-7-one], the IC50 in test [2] is 599 nM.
